# Laboratory results as given in patent publication US10501449B2 (priority 2018, dated 2019).
# pIC50: −log10 of the molar value. Like-named read-outs stand apart in the source and are kept apart here.
# Legend:
# [1] = biological target: hERG channels (Homo sapiens (Human), UniProt Q12809); assay: hERG Manual Patch Clamp Assay; type: cell-based; settings: human, HEK 293 cells stably expressing hERG channels, pH 7.4, 1 uM, read-out: hERG EP % Inh @ 1 uM
# [2] = biological target: T1, hROMK (human Kir1.1) (Homo sapiens (Human), UniProt P48048); assay: cell-based; settings: CHO T-Rex hROMK stable cell line; thallium flux; 10-point concentration response curve; read-out: Human ROMK Th Flux IC50
# [3] = biological target: T1, hROMK (human Kir1.1); assay: cell-based; type: cell-based; settings: whole-cell manual patch clamp, CHO T-Rex hROMK stable cell line, voltage step to -120 mV, Ba2+-subtracted hROMK current; read-out: ROMK EP IC50
# T1 sequence (P48048 whole entry): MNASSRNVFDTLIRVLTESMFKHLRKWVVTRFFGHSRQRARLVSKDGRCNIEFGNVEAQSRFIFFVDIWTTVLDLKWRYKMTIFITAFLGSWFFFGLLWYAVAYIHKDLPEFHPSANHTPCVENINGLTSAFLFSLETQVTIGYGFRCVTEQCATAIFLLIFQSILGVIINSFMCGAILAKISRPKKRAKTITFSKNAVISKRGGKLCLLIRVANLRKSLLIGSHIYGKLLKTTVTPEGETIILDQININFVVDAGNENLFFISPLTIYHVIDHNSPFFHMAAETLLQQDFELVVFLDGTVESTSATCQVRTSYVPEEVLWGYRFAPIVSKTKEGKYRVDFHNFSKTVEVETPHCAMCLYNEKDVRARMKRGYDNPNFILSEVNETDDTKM
# Sequence of hERG channels (Q12809 whole entry): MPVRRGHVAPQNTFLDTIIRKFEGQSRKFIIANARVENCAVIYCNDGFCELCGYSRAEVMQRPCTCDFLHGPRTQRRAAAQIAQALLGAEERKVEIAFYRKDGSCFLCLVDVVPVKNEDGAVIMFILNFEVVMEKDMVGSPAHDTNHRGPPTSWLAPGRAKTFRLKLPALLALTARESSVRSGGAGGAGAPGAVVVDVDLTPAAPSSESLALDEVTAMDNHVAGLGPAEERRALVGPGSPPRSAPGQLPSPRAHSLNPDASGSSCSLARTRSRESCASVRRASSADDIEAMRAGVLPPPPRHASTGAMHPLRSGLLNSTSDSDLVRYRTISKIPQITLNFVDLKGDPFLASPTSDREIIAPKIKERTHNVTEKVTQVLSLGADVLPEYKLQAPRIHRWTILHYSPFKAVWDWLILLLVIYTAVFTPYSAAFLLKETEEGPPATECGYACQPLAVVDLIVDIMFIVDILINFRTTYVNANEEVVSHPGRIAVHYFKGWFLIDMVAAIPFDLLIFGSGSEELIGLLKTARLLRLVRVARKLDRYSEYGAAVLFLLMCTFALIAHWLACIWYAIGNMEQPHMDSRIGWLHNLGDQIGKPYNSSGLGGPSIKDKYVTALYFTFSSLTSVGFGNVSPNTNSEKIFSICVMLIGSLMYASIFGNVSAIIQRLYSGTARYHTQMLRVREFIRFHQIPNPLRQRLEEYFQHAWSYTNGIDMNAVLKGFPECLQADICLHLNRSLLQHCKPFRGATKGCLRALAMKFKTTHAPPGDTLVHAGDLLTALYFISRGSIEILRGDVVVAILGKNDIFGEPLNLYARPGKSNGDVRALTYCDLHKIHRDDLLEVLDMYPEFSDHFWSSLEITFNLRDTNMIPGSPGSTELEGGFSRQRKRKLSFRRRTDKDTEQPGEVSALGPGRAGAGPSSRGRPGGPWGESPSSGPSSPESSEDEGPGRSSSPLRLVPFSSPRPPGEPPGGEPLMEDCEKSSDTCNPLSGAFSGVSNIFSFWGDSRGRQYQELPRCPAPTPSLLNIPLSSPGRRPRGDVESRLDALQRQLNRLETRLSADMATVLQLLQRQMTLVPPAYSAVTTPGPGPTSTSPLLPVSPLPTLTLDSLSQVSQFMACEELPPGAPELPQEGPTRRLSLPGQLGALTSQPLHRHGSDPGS
Structure (SMILES),inhibition at 1 µM [1] [%],pIC50 [2],pIC50 [3]
"Cc1cc(-n2cc(CN3CC(C)O[C@H](c4ccc5c(c4C)COC5=O)C3)cn2)ncc1C#N (stereo partly drawn) [Example 240-I, 4-methyl-6-(4-(((6R)-2-methyl-6-(4-methyl-1-oxo-1,3-dihydroisobenzofuran-5-yl)morpholino)methyl)-1H-pyrazol-1-yl)nicotinonitrile]",8.3,7.38,7.47
"COc1cc(-n2cc(CN3CCN[C@H](c4ccc5c(c4C)COC5=O)C3)nn2)ncc1C#N [Example 255-I, (R)-4-methoxy-6-(4-((3-(4-methyl-1-oxo-1,3-dihydroisobenzofuran-5-yl)piperazin-1-yl)methyl)-1H-1,2,3-triazol-1-yl)nicotinonitrile]",9.5,7.48,8.04
